Measurements: patent publication US4361703A, “Para-amino(or nitro)phenyl N-acetylaminothioalkanoates” (priority 1977, dated 1982)

Columns and labels:
[1] = test system: yeast-induced hyperthermia; assay: Antipyretic activity, yeast-induced hyperthermia test in rats; assay type: in vivo, male Charles River rats; settings: compared with NAPA, equimolar basis, oral
Protocol: (D)--Investigation of Antipyretic Activity in Rats
Using the conventional procedure for the yeast-induced hyperthermia test, several groups of 10 male Charles River rats were given a subcutaneous injection of dried yeast. Immediately after the injection they were then medicated orally with respectively:
100 mg/kg of N-acetyl-para-aminophenol (NAPA);
80 mg/kg of NAPA+43.0 mg/kg of Compound A; and
60 mg/kg of NAPA+86.0 mg/kg of Compound A.
In the mixtures the amount of Compound A, N-acetyl-para-aminophenyl N'-acetyl-D,L-methionate, used was in each case equimolar with the 10%, 20% or 40% reduction in the amount of NAPA, so that all the medications were carried out at a level equivalent to 100 mg/kg of NAPA.

[2] = test system: hog liver esterase; assay: in vitro; assay type: in vitro ADME; settings: 30° C.
Protocol: (§1) PREPARATION OF TRIS BUFFER
(§2) 0.05 M tris buffer was made by dissolving 6.05 grams of tris-(hydroxymethyl)-methylamine in 1000 ml. of water, and adjusting the pH to 7.2 by the addition of 0.1 M HCl.
(§3) Standard solutions of 1×10^-4 M Compound A in analytical grade methanol (0.01 ml) were prepared, and tested in the simulated gastric and intestinal fluids, in tris buffer alone, in tris buffer with added hog liver esterase and also in serum. The solutions under test were incorporated in 1 ml. of each of the test fluids. A temperature of 30° C. was used for the assays involving the hog liver esterase, whereas a temperature of 37° C. was used for the assays involving the simulated gastric and intestinal fluids and the serum. After this, the mixture was allowed to stand and the supernatant liquid was spotted onto silica t.l.c. plates and developed in 90:10 chloroform/methanol. The mixture was then extracted with 5 mls of chloroform and the chloroform-containing mixture was filtered through phase-separating papers, which allow only the chloroform solution to pass through. The chloroform solution was also spotted onto silica t.l.c. plates and developed in 90:10 chloroform/methanol.

[3] = in vitro; assay type: in vitro ADME, hog; settings: pig, pH 7.2; tris buffer plus hog liver esterase, 30° C.
Protocol: as §1, §2, §3

[4] = Hydrolysis stability in simulated gastric fluid; assay type: physicochemical
Protocol: In order first to evaluate the stability of Compound A in the gastro-intestinal tract, simulated gastric and intestinal fluids and other test fluids were prepared as follows:
PREPARATION OF SIMULATED GASTRIC FLUID
0.35 gram of sodium chloride, 0.5 gram of glycine and 94 ml of M hydrochloric acid were mixed, and the volume was then made up to 1000 ml with distilled water. The pH of this system was about 1.79.
as §3

[5] = Serum "total NAPA" in beagle dogs; assay type: in vivo; settings: oral, last dose after 23 days
Protocol: (§4) (B)--Investigation of Serum Concentrations in Beagle Dogs
(§5) 6 Beagle dogs (3 males and 3 females) were dosed once a day (at 08.00 hrs. each day) for 23 days with Compound A, suspended in 1% gum tragacanth, which was administered orally by oesophageal tube, at a rate of either 432 mg/kg (2 dogs, 1 male and 1 female) or 675 mg/kg (4 dogs, 2 male and 2 female). During this period the dogs received their usual food and water until 16.00 hrs. on the day before the test; but from that time until 08.00 hrs. on the day of the test they were given no food, although they received their usual drinking water. The usual dosage of Compound A was however given to the animal at 08.00 hrs. on the day of the test.
Without any further feeding, serum samples were then taken from each animal 2, 4 and 6 hours after the oral administration of Compound A, thus at 10.00 hrs., 12.00 hrs. and 14.00 hrs. on the day of the test. After the 6-hour serum sample had been taken, the animals received their usual food for a while; but they were again made to fast for 12 hours from 20.00 hrs. on the day of the test until 08.00 hrs. on the following day, when the last, 24-hour serum sample was taken. […]

[6] = Hydrolysis stability in tris buffer; assay type: physicochemical
Protocol: as §1, §2, §3

[7] = Serum "free NAPA" in beagle dogs; assay type: in vivo; settings: oral
Protocol: as §4, §5
Without any further feeding, serum samples were then taken from each animal 2, 4 and 6 hours after the oral administration of Compound A, thus at 10.00 hrs., 12.00 hrs. and 14.00 hrs. on the day of the test. After the 6-hour serum sample had been taken, the animals received their usual food for a while; but they were again made to fast for 12 hours from 20.00 hrs. on the day of the test until 08.00 hrs. on the following day, when the last, 24-hour serum sample was taken.
A direct determination similar to that used in Determination 2 above gave results for "free NAPA" as set out in Table IV below: […]

[8] = in vivo; settings: mouse, po
Protocol: (A)--Investigation of Serum Concentrations in Mice
36 Charles River COBS mice (18 males and 18 females) weighing 30 g each were deprived of food for 16 hours before the trial but were given their usual drinking water. Three groups, each containing 6 males and 6 females, received a dosage of 1 ml/100 g body weight per mouse, orally by stomach tube, of a suspension in 1% gum tragacanth of respectively:
Group X: 500 mg/kg of N-acetyl-para-aminophenol
A blood sample was taken by throat-slitting from one male and one female from each Group at each study time, i.e. 1/2, 1, 2, 4 and 24 hours after the oral administration.
At times 1/2, 1, 2 and 4 hours, each serum sample was divided into three 0.1 ml trial samples for the following three determinations:
This determination was carried out by direct extraction, with no prior hydrolysis, according to an adaptation of the above-mentioned method.

Row | SMILES | antipyretic effect [1] | effect of hog liver esterase on the rate of hydrolysis [2] | half-life [3] | half-life ([4]; pH 1.79, simulated gastric fluid, pH about 1.79, 37° C.) | rate of hydrolysis ([4]; simulated gastric juice, 37° C.) | recovery of "total NAPA" in serum, time [5] | half-life ([6]; pH 7.2, tris buffer pH 7.2, 30° C.) | half-life ([6]; pH 7.2, tris buffer pH 7.2, 37° C.) | hydrolysis in vivo ([7]; 23 days) | recovery of "free NAPA" in serum, time ([7]; last dose after 23 days) | concentration at 2 h ([8]; 500 mg/kg, Serum "free NAPA") | concentration at 4 h ([8]; 500 mg/kg, Serum "free NAPA") | concentration at 4 h ([8]; 1073 mg/kg)
1 | CSCCC(NC(C)=O)C(=O)Oc1ccc(NC(C)=O)cc1 (racemic) [Compound A, N-acetyl-para-aminophenyl N'-acetyl-D,L-methionate] | virtually identical upon an equimolar basis of comparison with that of the well-tried analgesic NAPA | no effect on the rate of hydrolysis | ~7.92 h | 40 h | very slow | up to 24 hours | ~7.92 h | 4 h | easily hydrolyzed | up to 6 hours | – | – | –
2 | CC(=O)Nc1ccc(O)cc1 [NAPA, N-acetyl-para-aminophenol] | – | – | – | – | – | – | – | – | – | – | 97000 ng/mL | 32000 ng/mL | 32000 ng/mL
